Molecular target: T1, PIK3C2A (PI3K-C2 alpha) (Homo sapiens, UniProt O00443)
T1 construct: purchased Thermo Fisher Scientific (Life Technologies) SelectScreen
Experiment: SelectScreen Adapta
Format: biochemical
Description: The in vitro kinase selectivity of NU5455 was determined using the SelectScreen Broad Assay Panel (Thermo Fisher Scientific) involving activity and binding assays (Supplemental Table 1). […] Class IA PI3Ks were measured using the p85α subunit.
Kinase [ATP] % Assay Kinase [ATP] % Assay Kinase [ATP] % Assay Kinase [ATP] % Assay
DNA-PK Km app 98.3 Z LATS2 n/a 4.7 L KIT D820E n/a 1.3 L GSK3B (GSK3 beta) Km app -2.5 Z
PIK3C3 (hVPS34) Km app 85.9 A PRKCZ (PKC zeta) Km app 4.7 Z GRK1 n/a 1.3 L BMPR2 n/a -2.5 L
PIK3C2B (PI3K-C2 beta) 10 28.9 A FGFR1 Km app 4.7 Z BRSK2 n/a 1.2 L CDC42 BPB (MRCKB) Km app -2.5 Z
SNF1LK2 Km app 26.6 Z MINK1 Km app 4.6 Z NUAK1 (ARK5) Km app 1.2 A AMPK (A2/B2/G2) n/a -2.6 L
HCK Km app 18.0 Z CSF1R (FMS) Km app 4.3 Z CDK9/cyclin K n/a 1.0 L PRKG1 Km app -2.7 Z
NEK2 Km app 17.8 Z CSNK1G3 (CK1 gamma 3) Km app 4.2 Z NUAK2 n/a 1.0 L KIT T670E n/a -2.8 L
ALK Km app 17.3 Z STK32C (YANK3) n/a 4.2 L CDK2/cyclin O n/a 0.9 L ERBB4 (HER4) Km app -2.8 Z
FGFR3 K650M n/a 16.5 L STK22D (TSSK1) Km app 4.2 Z CAMKK2 (CaMKK beta) n/a 0.9 L PLK4 n/a -2.8 L
SIK3 n/a 16.1 L TAOK3 (JIK) n/a 4.2 L FGFR3 Km app 0.9 Z GRK7 Km app -3.0 Z
LYN A Km app 15.2 Z RPS6KA4 (MSK2) Km app 4.2 Z ULK2 n/a 0.9 L MAPKAPK2 Km app -3.1 Z
BMPR1B (ALK6) n/a 14.5 L PTK2B (FAK2) Km app 4.2 Z KIT D816V n/a 0.9 L FGFR4 Km app -3.1 Z
INSRR (IRR) Km app 14.1 Z CLK2 Km app 4.1 Z CAMK1 (CaMK1) 10 0.8 A CASK n/a -3.1 L
PLK2 Km app 14.1 Z STK24 (MST3) Km app 4.1 Z PTK6 (Brk) Km app 0.7 Z GRK5 Km app -3.2 Z
PRKACA (PKA) Km app 14.0 Z CAMK1D (CaMKI delta) Km app 4.1 Z CAMK2B (CaMKII beta) Km app 0.7 Z EGFR (ErbB1) T790M Km app -3.3 Z
EIF2AK2 (PKR) n/a 13.3 L INSR Km app 4.1 Z ACVR1 (ALK2) n/a 0.7 L PAK4 Km app -3.3 Z
PRKX Km app 12.5 Z IRAK1 Km app 4.0 A ABL1 H396P n/a 0.6 L DAPK3 (ZIPK) Km app -3.4 Z
FGR Km app 12.1 Z SRC N1 Km app 3.9 Z MERTK (cMER) A708S n/a 0.6 L RET M918T n/a -3.5 L
CLK1 Km app 11.7 Z SRPK2 Km app 3.9 Z MAPKAPK5 (PRAK) Km app 0.6 Z PRKCQ (PKC theta) Km app -3.7 Z
MARK3 Km app 11.4 Z RPS6KA6 (RSK4) Km app 3.8 Z AKT1 (PKB alpha) Km app 0.5 Z CAMKK1 (CAMKKA) n/a -3.8 L
PDGFRB (PDGFR beta) Km app 11.0 Z GRK6 Km app 3.7 Z NTRK3 (TRKC) Km app 0.4 Z FLT3 D835Y Km app -3.9 Z
PRKCN (PKD3) Km app 10.7 Z PKN1 (PRK1) Km app 3.6 Z ZAP70 Km app 0.3 Z ROCK2 Km app -4.1 Z
STK16 (PKL12) n/a 10.5 L MAP3K8 (COT) 100 3.5 Z CSNK1A1 (CK1 alpha 1) Km app 0.3 Z CHUK (IKK alpha) Km app -4.2 A
FES (FPS) Km app 10.4 Z FLT4 (VEGFR3) Km app 3.5 Z MYLK (MLCK) n/a 0.2 L AXL Km app -4.2 Z
ABL1 Km app 10.4 Z GRK4 Km app 3.5 Z MKNK2 (MNK2) n/a 0.2 L PIM2 Km app -4.3 Z
MUSK Km app 10.3 Z FRK (PTK5) Km app 3.4 Z AMPK (A1/B1/G3) n/a 0.2 L PAK1 Km app -4.4 Z
MAPK1 (ERK2) Km app 10.1 Z FYN A n/a 3.3 L MAP3K2 (MEKK2) n/a 0.1 L BMPR1A (ALK3) n/a -4.4 L
BRAF 100 9.9 Z CDK1/cyclin A2 n/a 3.3 L CDK8/cyclin C n/a 0.1 L STK4 (MST1) Km app -4.4 Z
IGF1R Km app 9.7 Z KIT V559D T670I n/a 3.1 L MARK2 Km app 0.1 Z PRKCH (PKC eta) Km app -4.6 Z
MAPK14 (p38 alpha) Km app 9.7 Z SPHK2 10 3.1 A ICK n/a 0.0 L SGKL (SGK3) Km app -4.6 Z
LCK Km app 9.6 Z FGFR3 G697C n/a 3.1 L FGFR2 Km app 0.0 Z PI4KB (PI4K beta) Km app -4.7 A
MAPK11 (p38 beta) Km app 9.5 Z RIPK2 n/a 3.1 L AKT2 (PKB beta) Km app 0.0 Z PRKCE (PKC epsilon) Km app -4.9 Z
SRC Km app 9.5 Z PAK6 Km app 3.0 Z EPHB2 Km app -0.1 Z PHKG1 Km app -5.0 Z
CHEK1 (CHK1) Km app 9.3 Z LYN B Km app 3.0 Z TGFBR2 n/a -0.1 L PDGFRA D842V Km app -5.0 Z
CAMK2D (CaMKII delta) Km app 9.3 Z DAPK2 n/a 2.9 L TEK (Tie2) Km app -0.1 Z PRKG2 (PKG2) Km app -5.1 Z
PLK1 Km app 9.2 Z EPHA4 Km app 2.9 Z AURKA (Aurora A) Km app -0.1 Z TYRO3 (RSE) Km app -5.1 Z
RET Y791F Km app 9.2 Z PIK3CG (p110 gamma) Km app 2.9 A KIT D816H n/a -0.2 L TAOK2 (TAO1) Km app -5.1 Z
FLT3 Km app 9.1 Z HIPK1 (Myak) Km app 2.8 Z KIT N822K n/a -0.2 L EPHB4 Km app -5.3 Z
MAPK10 (JNK3) 100 9.0 Z ADRBK2 (GRK3) Km app 2.8 Z PRKACG (PRKAC gamma) n/a -0.2 L AURKC (Aurora C) Km app -5.4 Z
CSNK2A2 (CK2 alpha 2) Km app 8.7 Z STK17B (DRAK2) n/a 2.7 L TEK (TIE2) Y1108F n/a -0.3 L JAK1 Km app -5.7 Z […]

T1 sequence (O00443 whole entry): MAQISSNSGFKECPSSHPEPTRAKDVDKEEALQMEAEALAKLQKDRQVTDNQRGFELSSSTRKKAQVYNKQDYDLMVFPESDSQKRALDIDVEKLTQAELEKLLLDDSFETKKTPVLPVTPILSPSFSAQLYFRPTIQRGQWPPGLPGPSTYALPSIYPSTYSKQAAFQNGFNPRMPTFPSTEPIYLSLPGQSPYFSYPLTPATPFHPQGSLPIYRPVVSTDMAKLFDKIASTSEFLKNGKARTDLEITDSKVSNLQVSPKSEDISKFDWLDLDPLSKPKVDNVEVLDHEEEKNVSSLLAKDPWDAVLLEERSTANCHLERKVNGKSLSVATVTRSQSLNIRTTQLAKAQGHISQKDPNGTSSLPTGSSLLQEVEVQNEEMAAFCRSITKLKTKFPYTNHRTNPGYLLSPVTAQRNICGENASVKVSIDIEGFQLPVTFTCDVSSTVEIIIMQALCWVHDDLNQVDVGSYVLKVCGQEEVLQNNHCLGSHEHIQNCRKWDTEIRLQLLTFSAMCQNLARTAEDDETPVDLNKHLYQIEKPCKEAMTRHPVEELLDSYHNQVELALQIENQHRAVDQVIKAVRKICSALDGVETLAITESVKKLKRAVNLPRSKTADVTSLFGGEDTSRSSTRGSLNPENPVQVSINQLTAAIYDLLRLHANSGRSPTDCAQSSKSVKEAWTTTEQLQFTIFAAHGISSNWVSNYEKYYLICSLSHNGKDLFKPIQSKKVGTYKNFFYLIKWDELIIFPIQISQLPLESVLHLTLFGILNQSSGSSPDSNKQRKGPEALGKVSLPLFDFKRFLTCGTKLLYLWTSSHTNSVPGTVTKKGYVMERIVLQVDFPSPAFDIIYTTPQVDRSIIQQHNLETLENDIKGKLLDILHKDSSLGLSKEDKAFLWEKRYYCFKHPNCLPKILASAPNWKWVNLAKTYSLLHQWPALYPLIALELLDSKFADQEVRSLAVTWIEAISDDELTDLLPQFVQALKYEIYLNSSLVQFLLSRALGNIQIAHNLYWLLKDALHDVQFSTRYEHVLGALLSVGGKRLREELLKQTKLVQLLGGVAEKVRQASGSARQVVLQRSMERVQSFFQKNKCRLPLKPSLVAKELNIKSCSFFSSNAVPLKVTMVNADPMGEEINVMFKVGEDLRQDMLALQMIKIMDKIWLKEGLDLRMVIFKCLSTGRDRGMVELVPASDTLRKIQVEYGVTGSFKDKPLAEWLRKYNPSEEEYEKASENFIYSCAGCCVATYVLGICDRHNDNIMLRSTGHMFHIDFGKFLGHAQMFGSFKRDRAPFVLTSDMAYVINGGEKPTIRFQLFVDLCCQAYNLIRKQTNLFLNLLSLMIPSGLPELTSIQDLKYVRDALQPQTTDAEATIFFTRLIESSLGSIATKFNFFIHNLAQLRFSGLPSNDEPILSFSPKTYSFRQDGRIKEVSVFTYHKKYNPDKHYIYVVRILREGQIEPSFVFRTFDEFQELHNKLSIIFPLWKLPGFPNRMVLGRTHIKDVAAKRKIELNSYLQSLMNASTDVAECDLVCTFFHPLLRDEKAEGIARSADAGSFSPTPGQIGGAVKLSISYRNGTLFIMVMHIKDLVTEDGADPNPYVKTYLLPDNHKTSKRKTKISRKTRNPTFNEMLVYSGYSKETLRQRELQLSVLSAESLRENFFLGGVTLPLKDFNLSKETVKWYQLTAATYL

Question: Which inhibition at 1 µM does the source give for CN(C(=O)CN1CCOCC1)c1ccc2sc3c(-c4cccc5c(=O)cc(N6CC7CCC(C6)O7)oc45)cccc3c2c1 [NU5455] here?
Answer: The inhibition at 1 µM was 1.3%.

Reference: article PMC6934184, “Selective DNA-PKcs inhibition extends the therapeutic index of localized radiotherapy and chemotherapy” (The Journal of Clinical Investigation, 2019)
